Experimental data reported in ChEMBL document CHEMBL1201862, “PubChem BioAssay data set” (2004).
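These data come from cells grown in 96-well plates and exposed to compound for 48 hours at five concentrations. The concentration for 50% growth inhibition is given as GI50.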 Activity calls are given as the source filed them. Cut-off read from the data, not from the text of the source: active = GI50 up to about 1.1 µM and inactive = higher.

What was measured:
Assay in all cases: NCI-60 cell line screen, 48 h
OVCAR-5 = system: OVCAR-5
SF-268 = system: SF-268
A549 = system: A549
MOLT-4 = system: MOLT-4
CCRF-CEM = system: CCRF-CEM
K562 = system: K562
SNB-19 = system: SNB-19
NCI-H460 = system: NCI-H460
BT-549 = system: BT-549
PC-3 = system: PC-3
SK-MEL-5 = system: SK-MEL-5
UO-31 = system: UO-31
SK-MEL-2 = system: SK-MEL-2
ACHN = system: ACHN
RXF 393 = system: RXF 393
NCI-H23 = system: NCI-H23
HL-60 = system: HL-60
UACC-257 = system: UACC-257
HT-29 = system: HT-29
RPMI-8226 = system: RPMI-8226
U-251 = system: U-251
CAKI-1 = system: CAKI-1
DU-145 = system: DU-145
KM12 = system: KM12
OVCAR-4 = system: OVCAR-4
SK-MEL-28 = system: SK-MEL-28
MDA-MB-435 = system: MDA-MB-435
MDA-N = system: MDA-N
A498 = system: A498
Malme-3M = system: Malme-3M
SN12C = system: SN12C
NCI-H226 = system: NCI-H226
TK-10 = system: TK-10
MCF7 = system: MCF7
SF-295 = system: SF-295
OVCAR-3 = system: OVCAR-3
UACC-62 = system: UACC-62
SNB-75 = system: SNB-75
HOP-92 = system: HOP-92
HCT-116 = system: HCT-116
T47D = system: T47D
HCC 2998 = system: HCC 2998
EKVX = system: EKVX
NCI/ADR-RES = system: NCI/ADR-RES
MDA-MB-231 = system: MDA-MB-231
HCT-15 = system: HCT-15
SF-539 = system: SF-539
786-0 = system: 786-0
IGROV-1 = system: IGROV-1
SR = system: SR
Hs-578T = system: Hs-578T
HOP-62 = system: HOP-62
LOX IMVI = system: LOX IMVI
M14 = system: M14
SK-OV-3 = system: SK-OV-3
SW-620 = system: SW-620
COLO 205 = system: COLO 205
NCI-H522 = system: NCI-H522
OVCAR-8 = system: OVCAR-8

Measured: GI50

COc1ccc(/N=C(/SS/C(=N/c2ccc(OC)cc2)c2ccc([N+](=O)[O-])o2)c2ccc([N+](=O)[O-])o2)cc1
inactive: OVCAR-5 2.2 µM | SF-268 1.89 µM | A549 2.79 µM | MOLT-4 4.08 µM | CCRF-CEM 2.08 µM | K562 1.19 µM | SNB-19 1.38 µM | BT-549 1.54 µM | SK-MEL-5 5.75 µM | UO-31 1.24 µM | SK-MEL-2 2.08 µM | ACHN 1.41 µM | NCI-H23 1.45 µM | HL-60 1.69 µM | UACC-257 2.06 µM | CAKI-1 1.92 µM | DU-145 1.41 µM | KM12 1.14 µM | OVCAR-4 1.42 µM | SK-MEL-28 2.49 µM | MDA-MB-435 1.59 µM | MDA-N 2.07 µM | A498 12.4 µM | Malme-3M 2.02 µM | SN12C 1.95 µM | NCI-H226 10.1 µM | TK-10 2.38 µM | SF-295 2.16 µM | UACC-62 1.28 µM | SNB-75 1.27 µM | HOP-92 3.53 µM | HCT-116 1.18 µM | T47D 1.61 µM | HCC 2998 1.32 µM | EKVX 1.52 µM | NCI/ADR-RES 1.39 µM | MDA-MB-231 2.77 µM | SF-539 1.49 µM | IGROV-1 1.75 µM | Hs-578T 2.19 µM | HOP-62 1.94 µM | LOX IMVI 1.78 µM | M14 1.7 µM | SK-OV-3 2.79 µM | COLO 205 1.92 µM | OVCAR-8 1.37 µM
0.489 µM: HCT-15
active: NCI-H460 0.982 µM | PC-3 0.838 µM | RXF 393 0.695 µM | HT-29 0.701 µM | RPMI-8226 0.489 µM | U-251 0.35 µM | MCF7 0.51 µM | OVCAR-3 0.624 µM | 786-0 0.719 µM | SR 0.547 µM | SW-620 0.35 µM | NCI-H522 0.286 µM

CC1=NN(c2nc(N)nc(/C(C#N)=C\c3cccc([N+](=O)[O-])c3)n2)C(C)(C)C1
inactive: OVCAR-5 24.4 µM | SF-268 10.7 µM | A549 12.3 µM | MOLT-4 34.6 µM | CCRF-CEM 10.8 µM | K562 11.9 µM | SNB-19 10.8 µM | NCI-H460 4.31 µM | BT-549 > 20.7 µM | PC-3 11.5 µM | SK-MEL-5 20.5 µM | UO-31 5.32 µM | SK-MEL-2 16.4 µM | ACHN 15.8 µM | RXF 393 5.19 µM | NCI-H23 10.1 µM | UACC-257 20.7 µM | HT-29 11.7 µM | RPMI-8226 5.65 µM | U-251 6.78 µM | CAKI-1 12.4 µM | DU-145 12.7 µM | KM12 14.9 µM | OVCAR-4 10 µM | SK-MEL-28 19.1 µM | MDA-MB-435 11.2 µM | MDA-N 13.2 µM | A498 > 23 µM | Malme-3M 16.9 µM | SN12C 25.2 µM | TK-10 15.7 µM | MCF7 6.82 µM | SF-295 10.2 µM | OVCAR-3 6.76 µM | UACC-62 19.6 µM | SNB-75 6.68 µM | HOP-92 > 24.4 µM | HCT-116 10.4 µM | T47D 11 µM | HCC 2998 12.2 µM | EKVX 29.9 µM | NCI/ADR-RES 18.8 µM | MDA-MB-231 9.29 µM | SF-539 8.2 µM | 786-0 6.58 µM | IGROV-1 5.05 µM | SR 30.1 µM | Hs-578T 18.5 µM | HOP-62 5.13 µM | LOX IMVI 7.13 µM | M14 20 µM | SK-OV-3 11.9 µM | SW-620 8.75 µM | COLO 205 14.9 µM | NCI-H522 2.92 µM | OVCAR-8 7.29 µM
active: HL-60 0.205 µM
13.2 µM: HCT-15
